Key:
Assay in all cases: normalised response (% of control), CellTox Green; higher = less cell death (100 = DMSO, 0 = benzethonium chloride kill control)
Conditions in all cases: incubation time: 72 h
MCF-10A = tested on: MCF-10A
How it was run: (§1)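 The table gives the normalised signal for a single concentration in each entry. Breast cancer cell lines were seeded (20 µl suspension) into 384-well plates holding compound at 5 concentrations in 10-fold steps over a compound-specific 10,000-fold range and incubated 72 h, then read for CellTox Green fluorescence (485/520 nm) and CellTiter-Glo luminescence. Normalisation on each plate used 0.1 % DMSO (100) and a positive kill control (0).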

Hs578T = tested on: Hs578T
How it was run: as §1

BT-549 = tested on: BT-549
How it was run: as §1

Structure (SMILES) | normalised response (MCF-10A) | normalised response (Hs578T) | normalised response (BT-549)
N[C@@H](CSC(c1ccccc1)(c1ccccc1)c1ccccc1)C(=O)O [S-trityl-L-cysteine] (4000 nM) | 116% | 106% | 104%
COc1cc2nccc(Oc3ccc(NC(=O)C4(C(=O)Nc5ccc(F)cc5)CC4)cc3)c2cc1OC [Cabozantinib] (100 nM) | 88.3% | 102% | 101%
N.N.[Cl][Pt][Cl] [Cisplatin] (1000 nM) | 123% | 144% | 89.3%
Cn1c(CCCC(=O)O)nc2cc(N(CCCl)CCCl)ccc21 [Bendamustine] (1000 nM) | 67.1% | – | 119%
Cn1c(Nc2ccc(C(F)(F)F)cc2)nc2cc(Oc3ccnc(-c4ncc(C(F)(F)F)[nH]4)c3)ccc21 [RAF265] (1000 nM) | 75.4% | 118% | 81.7%
C=C(c1ccc(C(=O)O)cc1)c1cc2c(cc1C)C(C)(C)CCC2(C)C [Bexarotene] (10000 nM) | 93.8% | – | 89.8%
O=C1CCC(N2C(=O)c3ccccc3C2=O)C(=O)N1 (centres undefined) [Thalidomide] (1000 nM) | – | 97.6% | –
Clc1ccc(Nc2nnc(Cc3ccncc3)c3ccccc23)cc1 [Vatalanib] (1000 nM) | 84.5% | 105% | 137%
CCC1(c2ccc(N)cc2)CCC(=O)NC1=O (centres undefined) [Aminoglutethimide] (1000 nM) | 109% | 71.8% | 117%
O=P1(NCCCl)OCCCN1CCCl (centres undefined) [Ifosfamide] (1000 nM) | 90% | 89.2% | 107%
CO[C@H]1/C=C\C=C(/C)C(=O)NC2=CC(=O)C(NCCN(C)C)=C(C[C@@H](C)C[C@H](OC)[C@H](O)[C@@H](C)/C=C(\C)[C@@H]1OC(N)=O)C2=O [Alvespimycin] (100 nM) | 33.3% | 101% | 130%
N[C@@H](CSC(c1ccccc1)(c1ccccc1)c1ccccc1)C(=O)O [S-trityl-L-cysteine] (40000 nM) | 112% | 126% | 121%
CC1(C)NC(=O)N(c2ccc([N+](=O)[O-])c(C(F)(F)F)c2)C1=O [Nilutamide] (1000 nM) | 115% | 100% | 123%
CNCc1ccc(-c2[nH]c3cc(F)cc4c3c2CCNC4=O)cc1 [Rucaparib] (10000 nM) | 83.3% | – | 112%
CO[C@H]1/C=C\C=C(/C)C(=O)NC2=CC(=O)C(NCCN(C)C)=C(C[C@@H](C)C[C@H](OC)[C@H](O)[C@@H](C)/C=C(\C)[C@@H]1OC(N)=O)C2=O [Alvespimycin] (1000 nM) | 23.5% | -33.1% | 107%
CN(C)/N=N/c1[nH]cnc1C(N)=O [Dacarbazine] (10000 nM) | 103% | 126% | 94.1%
Cc1ccc(-n2nc(C(C)(C)C)cc2NC(=O)Nc2ccc(OCCN3CCOCC3)c3ccccc23)cc1 [Doramapimod] (10000 nM) | 101% | 71.6% | 110%
C[C@]12CC[C@@H]3c4ccc(O)cc4C[C@@H](CCCCCCCCC[S+]([O-])CCCC(F)(F)C(F)(F)F)[C@H]3[C@@H]1CC[C@@H]2O (some centres undefined) [Fulvestrant] (1000 nM) | 101% | 121% | 91.9%
Cc1ccc(C(=O)Nc2ccc(CN3CCN(C)CC3)c(C(F)(F)F)c2)cc1C#Cc1cnc2cccnn12 [Ponatinib] (1000 nM) | 97% | 24.4% | 59.4%
COc1cc2nccc(Oc3ccc(NC(=O)C4(C(=O)Nc5ccc(F)cc5)CC4)cc3)c2cc1OC [Cabozantinib] (1000 nM) | – | 70.1% | 105%
CN(C)/N=N/c1[nH]cnc1C(N)=O [Dacarbazine] (1000 nM) | 111% | – | 114%
CC1(C)NC(=O)N(c2ccc([N+](=O)[O-])c(C(F)(F)F)c2)C1=O [Nilutamide] (10000 nM) | 79.5% | 102% | 107%

Source: the supplement of paper PMC4862054
